These results are taken from article PMC7647782, “Cytotoxic, Antioxidant, and Metabolic Enzyme Inhibitory Activities of Euphorbia cyparissias Extracts” (Oxidative Medicine and Cellular Longevity, 2020).

As usually defined, the IC50 is the concentration needed to halve the response being measured.

In the assay the target is DrPLA2-IB (Camelus dromedarius, UniProt A0A5N4C9D4). Briefly: Phospholipase activity inhibition, dromedary PLA2-IB. The class given is biochemical. The method, then: Dromedary (DrPlA2-IB), porcine (PPPlA2-IB), and stingray group IB phospholipases (SPLA2-IB) were purified and prepared as described in our previous works and De Haas et al., respectively. Dromedary (DrPL), stingray (SPL), and porcine (PPL) lipases were also purified according to protocols optimized in previous works. The enzymes β-glucosidase, α-amylase, and XO were purchased from Sigma-Aldrich (St. Louis, MO, USA).
The phospholipase activities were measured based on the De Araújo and Radvanyi method. The inhibitory effect of various extracts was determined using samples of dromedary, stingray, and porcine digestive group IB phospholipases (PLA2-IB). A 10 μL sample of ethanolic or aqueous extract was mixed with 10 μL of PLA2-GIB and preincubated for 20 min at room temperature. The mixture was added to 1 mL of the substrate, which was composed of lecithin (3.5 mM) solubilized in 100 mM NaCl, 3 mM sodium taurodeoxycholate, 10 mM CaCl2, and 0.055 mM red phenol at a pH of 7.6. The activity was verified by measuring spectrophotometrically the absorbance at 558 nm for 5 min. The inhibition percentage was calculated by measuring residual activity compared to negative control assay (absence of extract). The IC50 values were determined from the curve.
The activities of these enzymes were measured using the pH-stat technique on olive oil emulsion at optimal conditions for enzyme activity. […]

DrPLA2-IB, sequence (A0A5N4C9D4 23-145): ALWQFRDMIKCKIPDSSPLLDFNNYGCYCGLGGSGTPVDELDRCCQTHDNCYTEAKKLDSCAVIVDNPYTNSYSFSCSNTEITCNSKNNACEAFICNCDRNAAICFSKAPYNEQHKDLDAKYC

Consider `CC1(C)CC[C@]2(C(=O)O)CC[C@]3(C)C(=CC[C@@H]4[C@@]5(C)CC[C@H](O)C(C)(C)[C@@H]5CC[C@]43C)[C@@H]2C1` [Oleanolic acid, oleanolic acid], for which it took 174 µM to reach half-maximal inhibition (IC50).
